# Entries after “also recorded” stand apart in the source; their conditions may differ. Like-named read-outs stand apart in the source and are kept apart here.
# Legend:
# pKAP1 = assay: qIF of paired tumor biopsies: nuclear pKAP1; type: in vivo, human; conditions: 6 patients at MTD, C1D2
# Description: (§1) The LMP744 protocol collected pre-treatment (baseline) and on-treatment paired biopsies from patients in the expansion cohort. Core needle tumor biopsies (18-gauge) were collected and flash-frozen at point of collection per NCI SOPs (https://dctd.cancer.gov/ResearchResources/biomarkers/docs/par/SOP340507_Biopsy_Frozen.pdf) as described to preserve labile post-translational modifications such as phosphorylation. Biopsy pairs were thawed in formalin, fixed in paraffin embedded together with control tissues following NCI SOP340550 (https://dctd.cancer.gov/ResearchResources/biomarkers/DDR3/SOP340550_Biopsy_Section_Testis_Jejunum_Controls.pdf). TOP1 and TOP1cc were measured with a cocktail containing custom-conjugated rabbit monoclonal antibody anti-TOP1-DIG (Abcam, EPR5376 (2)) and mouse monoclonal antibody anti-TOP1cc (clone 1.1A [34, 35], EMD Millipore) that were detected with reporter secondary antibodies AlexaFluor-647 IgG fraction monoclonal mouse anti-digoxin (Jackson ImmunoResearch) and goat/anti-mouse AlexaFluor-488, respectively. Phosphorylated KAP1 (pKAP1, phosphorylated at S824) was measured using custom-conjugated pKAP1-pS824-DNP (Abcam, EPR5248) and detected with AlexaFluor-488 conjugated with anti-dinitrophenyl-KLH rabbit IgG Antibody Fraction (DNP-488, ThermoFisher). […]
# [1] = system: naturally occurring lymphomas; set-up: method as in PMID 30061364; conditions: canines with lymphomas; cited from earlier work
# cCasp3 = assay: IFA of paired tumor biopsies: cCasp3 co-localized with γH2AX (apoptosis); type: in vivo, human; conditions: patient 29, MTD, C1D2
# Description: as §1
# [2] = Plasma pharmacokinetics of LMP776, non-compartmental; type: in vivo, human; conditions: for half-life / AUC(0-inf) / AUC(0-t) / Cmax / Tmax: human, plasma, intravenous
# Experimental: Blood was collected during cycle 1 in the LMP744 study on C1D1 at the end of infusion (EOI), then again at 0.25, 0.5, 1, 2, 4, and 6 h after EOI. Blood was also collected prior to infusion and at EOI on days 2–5 during cycle 1, then again at 1 week (168 h) after C1D1 EOI. Samples were collected in EDTA tubes with 2 mL of blood per sample. Samples were centrifuged and plasma was stored at − 70 °C. Samples were analyzed using a validated LC–MS or LC–MS/MS method for each IIQ as previously described. Plasma-time data were analyzed using WinNonlin (Pharsight, Mountain View, CA). AUC values were calculated by non-compartmental analysis and end-of-infusion concentrations were measured on days 1 and 5 of cycle 1. Sample collection and analysis of LMP776 pharmacokinetics were performed as previously described.
structure (smiles),measurement,setting,value
COc1cc2c3c(n(CCCNCCO)c(=O)c2cc1OC)-c1cc2c(cc1C3=O)OCO2 [LMP744],Nuclear pKAP1,pKAP1,increased only in patient 29
same,Responders,[1],13 of 19
same,Response rate,[1],68.4%
same,Co-localized cytoplasmic cCASP3,cCasp3,increase in co-localized cytoplasmic cCASP3
COc1cc2c3c(n(CCCn4ccnc4)c(=O)c2cc1OC)-c1cc2c(cc1C3=O)OCO2 [LMP776],Cl,"[2]; DL1, 1 mg/m2, n=1",2.78 L/h/m2
same,Vd,"[2]; DL1, 1 mg/m2, n=1",63.4 L/m2
same,Vss,"[2]; DL1, 1 mg/m2, n=1",57.9 L/m2
same,Cl,"[2]; DL2, 2 mg/m2, n=7",4.0 (1.1) L/h/m2
same,Vd,"[2]; DL2, 2 mg/m2, n=7",58.4 L/m2
same,Vss,"[2]; DL2, 2 mg/m2, n=7",54.7 L/m2
same,Cl,"[2]; DL3, 3 mg/m2, n=3",2.7 (0.5) L/h/m2
same,Vd,"[2]; DL3, 3 mg/m2, n=3",37.5 L/m2
same,Vss,"[2]; DL3, 3 mg/m2, n=3",35.4 L/m2
same,Cl,"[2]; DL4, 4.5 mg/m2, n=3",3.7 (1.2) L/h/m2
same,Vd,"[2]; DL4, 4.5 mg/m2, n=3",49.7 L/m2
same,Vss,"[2]; DL4, 4.5 mg/m2, n=3",44.0 L/m2
same,Cl,"[2]; DL5, 6.75 mg/m2, n=3",3.8 (1.6) L/h/m2
same,Vd,"[2]; DL5, 6.75 mg/m2, n=3",48.2 L/m2
same,Vss,"[2]; DL5, 6.75 mg/m2, n=3",41.7 L/m2
same,Cl,"[2]; DL6, 9 mg/m2, n=2",3.4 (1.5) L/h/m2
same,Vd,"[2]; DL6, 9 mg/m2, n=2",62.7 L/m2
same,Vss,"[2]; DL6, 9 mg/m2, n=2",55.8 L/m2
same,Cl,"[2]; DL7 (MTD), 12 mg/m2, n=6",3.2 (1.5) L/h/m2
same,Vd,"[2]; DL7 (MTD), 12 mg/m2, n=6",40.7 L/m2
same,Vss,"[2]; DL7 (MTD), 12 mg/m2, n=6",38.5 L/m2
same,Cl,"[2]; DL8, 16 mg/m2, n=7",3.0 (1.4) L/h/m2
same,Vd,"[2]; DL8, 16 mg/m2, n=7",39.5 L/m2
same,Vss,"[2]; DL8, 16 mg/m2, n=7",37.1 L/m2
same,half-life,"[2]; 1 mg/m2, DL1, 1 mg/m2, n=1, read-out: t1/2 (converted)",38.6 h
same,half-life,"[2]; 2 mg/m2, DL2, 2 mg/m2, n=7, read-out: t1/2 (converted)",20.8 h
same,half-life,"[2]; 3 mg/m2, DL3, 3 mg/m2, n=3, read-out: t1/2 (converted)",13.6 h
same,half-life,"[2]; 4.5 mg/m2, DL4, 4.5 mg/m2, n=3, read-out: t1/2 (converted)",13.8 h
same,half-life,"[2]; 6.75 mg/m2, DL5, 6.75 mg/m2, n=3, read-out: t1/2 (converted)",11.5 h
same,half-life,"[2]; 9 mg/m2, DL6, 9 mg/m2, n=2, read-out: t1/2 (converted)",31.4 h
same,half-life,"[2]; 12 mg/m2, DL7 (MTD), 12 mg/m2, n=6, read-out: t1/2 (mean half-life) (converted)",12.6 h
same,half-life,"[2]; 12 mg/m2, MTD (DL7, 12 mg/m^2, n = 6), read-out: Half-life, range",8.2 to 16 h
same,half-life,"[2]; 16 mg/m2, DL8, 16 mg/m2, n=7, read-out: t1/2 (converted)",13.4 h
same,AUC(0-inf),"[2]; DL1, 1 mg/m2, n=1",880 ng·h/mL
same,AUC(0-t),"[2]; DL1, 1 mg/m2, n=1",359 ng·h/mL
same,Cmax,"[2]; DL1, 1 mg/m2, n=1",46.9 ng/mL
same,Tmax,"[2]; DL1, 1 mg/m2, n=1",1 h
same,AUC(0-inf),"[2]; DL2, 2 mg/m2, n=7",1060 ng·h/mL
same,AUC(0-t),"[2]; DL2, 2 mg/m2, n=7",530 ng·h/mL
same,Cmax,"[2]; DL2, 2 mg/m2, n=7",64.4 ng/mL
same,Tmax,"[2]; DL2, 2 mg/m2, n=7",1 h
same,AUC(0-inf),"[2]; DL3, 3 mg/m2, n=3",1580 ng·h/mL
same,AUC(0-t),"[2]; DL3, 3 mg/m2, n=3",1150 ng·h/mL
same,Cmax,"[2]; DL3, 3 mg/m2, n=3",124 ng/mL
same,Tmax,"[2]; DL3, 3 mg/m2, n=3",1 h
same,AUC(0-inf),"[2]; DL4, 4.5 mg/m2, n=3",1850 ng·h/mL
same,AUC(0-t),"[2]; DL4, 4.5 mg/m2, n=3",1300 ng·h/mL
same,Cmax,"[2]; DL4, 4.5 mg/m2, n=3",178 ng/mL
same,Tmax,"[2]; DL4, 4.5 mg/m2, n=3",1 h
same,AUC(0-inf),"[2]; DL5, 6.75 mg/m2, n=3",2510 ng·h/mL
same,AUC(0-t),"[2]; DL5, 6.75 mg/m2, n=3",1980 ng·h/mL
same,Cmax,"[2]; DL5, 6.75 mg/m2, n=3",273 ng/mL
same,Tmax,"[2]; DL5, 6.75 mg/m2, n=3",1 h
same,AUC(0-inf),"[2]; DL6, 9 mg/m2, n=2",7200 ng·h/mL
same,AUC(0-t),"[2]; DL6, 9 mg/m2, n=2",2970 ng·h/mL
same,Cmax,"[2]; DL6, 9 mg/m2, n=2",296 ng/mL
same,Tmax,"[2]; DL6, 9 mg/m2, n=2",1 h
same,AUC(0-inf),"[2]; DL7 (MTD), 12 mg/m2, n=6",5890 ng·h/mL
same,AUC(0-t),"[2]; DL7 (MTD), 12 mg/m2, n=6",4270 ng·h/mL
same,Cmax,"[2]; DL7 (MTD), 12 mg/m2, n=6",523 ng/mL
same,Tmax,"[2]; DL7 (MTD), 12 mg/m2, n=6",1.1 h
same,AUC(0-inf),"[2]; DL8, 16 mg/m2, n=7",8920 ng·h/mL
same,AUC(0-t),"[2]; DL8, 16 mg/m2, n=7",6170 ng·h/mL
same,Cmax,"[2]; DL8, 16 mg/m2, n=7",770 ng/mL
same,Tmax,"[2]; DL8, 16 mg/m2, n=7",1.1 h
same,Dependence of half-life on dose,[2]; in vivo,did not vary with dose level; also recorded: half-life was independent of dose
same,Systemic exposure (AUC) versus dose level,[2]; in vivo,increased linearly with dose level
same,Responders,[1],7 of 24
same,Response rate,[1],29.2%
